Results on eight molecules are retold here after US10729738B2, “Hindered disulfide drug conjugates” (priority 2015, dated 2020).

The nature of this series: In vitro disulfide cleavage and immolation by incubation with cysteine or glutathione (LC/MS). The conditions noted are these: for Percentage of all products: pH 7.0, 37° C. The series is classed as physicochemical. As to the method:
In a first phase of the experiment, disulfide cleavage and immolation by incubation with cysteine and glutathione—with the thiol concentrations mimic those in plasma and cancer cells—was investigated using unconjugated small molecule model systems with para-nitro-pyridyl disulfide-containing linker drug analogs 1, 2 and 11 below. In particular, cleavage and immolation was evaluated in vitro by incubation at […] with cysteine ([…] or 200 μM) or glutathione (GSH, 4 mM) in 100 mM Tris buffer pH 7.0 containing 5% methanol at 37° C. Aliquots were taken at specified time points and the samples were analyzed by LC/MS on Sciex TripleTOF 5600 on a Hypersil Gold C18 column (100×2.1, […], Thermo Scientific). The column was eluted by a gradient of buffer A (0.1% formic acid in 10 mM ammonium acetate) to buffer B (0.1% formic acid in 10 mM ammonium acetate in 90% acetonitrile), 5% B 0-0.5 min, 5-25% B 0.5-8 min, 25-75% B 8-13 min, and 75-95% B 13-13.5 min, 95% B 13.5-14.5 min, 95-5% B 14.5-15 min at 0.4 mL/min. Under these conditions, para-nitropyridyl thiol was eluted at 5.3 min. All products (compounds 1, 2, 11, 3a, 3b, 4a, 4b, 12a, 12 b, 6, 7, 13 and 8) were separated and characterized by LC/MS/MS in a positive ESI ion mode. All analytes had the protonated molecular MH^+ as the major species with little source fragmentation. Full scan accurate mass peak areas were used to estimate relative abundance of each component and the disappearance of 1, 2, and 11 estimated relative full scan peak areas was consistent with that estimated based on the relative abundance compared to time 0 by MS or UV. The results are reported in Table 15 below and the analytical results are presented in Table 16 below where “Cmpd” refers to compound, “RT” refers to retention time in minutes, and “Calc. Mass” refers to calculated mass. The relative abundance of disulfide cleavage and immolation products over time were evaluated and are disclosed in FIGS. 12A to 12C, 13A to 13C, 14A to 14C and 15A to 15C where the products were monitored by LC/MS from incubations of linker drugs 1, 2, and 11 at pH 7.0 and 37° C. in the presence of: 0.2 mM cysteine (FIGS. 12A, 12B and 12C); 0.03 mM cysteine (FIGS. 13A, 13B and 13C); 4 mM glutathione (FIGS. 14A, 14B and 14C); and 0.03 mM glutathione (FIGS. 15A, 15B and 15C). In FIGS. 12A to 12C, 13A to 13C, 14A to 14C and 15A to 15C, compound reference numbers 1, 2, 3a, 3b, 4a, 4b, 6, 7, 8, 11, 12a, 12b and 13 correspond to the structures below.

As to `C=C1C[C@H]2C=Nc3cc(OCCCCCOc4cc5c(cc4OC)C(=O)N4CC(=C)C[C@H]4C(O)N5C(=O)OCC4(SSc5ccc([N+](=O)[O-])cn5)CC4)c(OC)cc3C(=O)N2C1` (stereo partly shown) [Compound 2], the “Percentage of all products” value was determined as 21.1% (30 μM cysteine, 1 h); 19.1% (30 μM cysteine, 4 h); 12.0% (30 μM cysteine, 24 h); 16.1% (200 μM cysteine, 1 h); 10.8% (200 μM cysteine, 4 h); 7.0% (200 μM cysteine, 24 h). Also, the “Percentage of all products” value is, setting by setting: (4 mM GSH, 1 h) 17.9%; (4 mM GSH, 4 h) 9.0%; (4 mM GSH, 24 h) 4.3%.

On to `C=C1C[C@H]2C=Nc3cc(OCCCCCOc4cc5c(cc4OC)C(=O)N4CC(=C)C[C@H]4C(O)N5C(=O)OCC4(SSC[C@H](NC(=O)CC[C@H](N)C(=O)O)C(=O)NCC(=O)O)CCC4)c(OC)cc3C(=O)N2C1` (stereo partly shown) [Compound 12b], for which the “Percentage of all products” value turned out to be 1.6% (4 mM GSH, 1 h); 0.2% (4 mM GSH, 4 h); 0% (4 mM GSH, 24 h).

With `C=C1C[C@H]2C=Nc3cc(OCCCCCOc4cc5c(cc4OC)C(=O)N4CC(=C)C[C@H]4C(O)N5C(=O)OCC4(SSC[C@H](N)C(=O)O)CCC4)c(OC)cc3C(=O)N2C1` (stereo partly shown) [Compound 12a], the “Percentage of all products” value runs as follows: (30 μM cysteine, 1 h) 73.5%; (30 μM cysteine, 4 h) 74.8%; (30 μM cysteine, 24 h) 66.7%; (200 μM cysteine, 1 h) 21.5%; (200 μM cysteine, 4 h) 11.6%; (200 μM cysteine, 24 h) 0.8%.

As to `C=C1C[C@H]2C=Nc3cc(OCCCCCOc4cc5c(cc4OC)C(=O)N4CC(=C)C[C@H]4C(O)N5C(=O)OCC4(SSC[C@H](NC(=O)CC[C@H](N)C(=O)O)C(=O)NCC(=O)O)CC4)c(OC)cc3C(=O)N2C1` (stereo partly shown) [Compound 4b], the “Percentage of all products” value (4 mM GSH, 1 h) was 1.1%; the “Percentage of all products” value (4 mM GSH, 4 h) worked out at 0.4%; the “Percentage of all products” value (4 mM GSH, 24 h) was determined as 1.0%.

For the molecule `C=C1C[C@H]2C=Nc3cc(OCCCCCOc4cc5c(cc4OC)C(=O)N4CC(=C)C[C@H]4C(O)N5C(=O)OCC4(S)CCC4)c(OC)cc3C(=O)N2C1` (stereo partly shown) [Compound 13], the “Percentage of all products” value reads like this: (30 μM cysteine, 1 h) 1.3%; (30 μM cysteine, 4 h) 1.1%; (30 μM cysteine, 24 h) 0.1%; (200 μM cysteine, 1 h) 3.2%; (200 μM cysteine, 4 h) 1.6%; (200 μM cysteine, 24 h) 0%. The “Percentage of all products” value worked out at 2.3% (4 mM GSH, 1 h); 0% (4 mM GSH, 4 h); 0% (4 mM GSH, 24 h). Besides, the “Immolation of thiol intermediate” value (incubation with cysteine or glutathione) is recorded as “efficient immolation”.

For `C=C1CC2C=Nc3cc(OCCCCCOc4cc5c(cc4OC)C(=O)N4CC(=C)CC4C=N5)c(OC)cc3C(=O)N2C1` (stereo not shown) [Compound 8, reference compound], the “Percentage of all products” value was 6.8% (30 μM cysteine, 1 h, listed as 1 to 8, compound 1 to 8 conversion); 0.1% (30 μM cysteine, 1 h, listed as 2 to 8, compound 2 to 8 conversion); 3.6% (30 μM cysteine, 1 h, listed as 11 to 8, compound 11 to 8 conversion); 10.5% (30 μM cysteine, 4 h, listed as 1 to 8, compound 1 to 8 conversion); 0.1% (30 μM cysteine, 4 h, listed as 2 to 8, compound 2 to 8 conversion); 8.7% (30 μM cysteine, 4 h, listed as 11 to 8, compound 11 to 8 conversion). In addition, the “Percentage of all products” value is reported as 20.5% (30 μM cysteine, 24 h, listed as 1 to 8, compound 1 to 8 conversion); 0.5% (30 μM cysteine, 24 h, listed as 2 to 8, compound 2 to 8 conversion); 27.6% (30 μM cysteine, 24 h, listed as 11 to 8, compound 11 to 8 conversion); 83.7% (200 μM cysteine, 1 h, listed as 1 to 8, compound 1 to 8 conversion); 0.1% (200 μM cysteine, 1 h, listed as 2 to 8, compound 2 to 8 conversion); 68.8% (200 μM cysteine, 1 h, listed as 11 to 8, compound 11 to 8 conversion). Also, the “Percentage of all products” value was determined as 94.4% (200 μM cysteine, 4 h, listed as 1 to 8, compound 1 to 8 conversion); 0.3% (200 μM cysteine, 4 h, listed as 2 to 8, compound 2 to 8 conversion); 83.2% (200 μM cysteine, 4 h, listed as 11 to 8, compound 11 to 8 conversion); 99.9% (200 μM cysteine, 24 h, listed as 1 to 8, compound 1 to 8 conversion); 2.5% (200 μM cysteine, 24 h, listed as 2 to 8, compound 2 to 8 conversion); 97.7% (200 μM cysteine, 24 h, listed as 11 to 8, compound 11 to 8 conversion). Also, the “Percentage of all products” value is, setting by setting: (4 mM GSH, 1 h, listed as 1 to 8, compound 1 to 8 conversion) 88.0%; (4 mM GSH, 1 h, listed as 2 to 8, compound 2 to 8 conversion) 0.2%; (4 mM GSH, 1 h, listed as 11 to 8, compound 11 to 8 conversion) 86.7%; (4 mM GSH, 4 h, listed as 1 to 8, compound 1 to 8 conversion) 98.5%; (4 mM GSH, 4 h, listed as 2 to 8, compound 2 to 8 conversion) 0.4%; (4 mM GSH, 4 h, listed as 11 to 8, compound 11 to 8 conversion) 94.9%. For the same molecule, the “Percentage of all products” value is, setting by setting: (4 mM GSH, 24 h, listed as 1 to 8, compound 1 to 8 conversion) 99.9%; (4 mM GSH, 24 h, listed as 2 to 8, compound 2 to 8 conversion) 2.3%; (4 mM GSH, 24 h, listed as 11 to 8, compound 11 to 8 conversion) 99.3%.

As for `C=C1CC2C=Nc3cc(OCCCCCOc4cc5c(cc4OC)C(=O)N4CC(=C)CC4C(O)N5C(=O)OCC(C)SSc4ccc([N+](=O)[O-])cn4)c(OC)cc3C(=O)N2C1` (stereo not shown) [Compound 1], the “Percentage of all products” value is, setting by setting: (30 μM cysteine, 1 h) 10.6%; (30 μM cysteine, 4 h) 7.9%; (30 μM cysteine, 24 h) 4.5%; (200 μM cysteine, 1 h) 2.8%; (200 μM cysteine, 4 h) 1.0%; (200 μM cysteine, 24 h) 0%. Further, the “Percentage of all products” value is, setting by setting: (4 mM GSH, 1 h) 9.1%; (4 mM GSH, 4 h) 0.9%; (4 mM GSH, 24 h) 0.1%.

Turning to `C=C1CC2C=Nc3cc(OCCCCCOc4cc5c(cc4OC)C(=O)N4CC(=C)CC4C(O)N5C(=O)OCC(C)SSCC(NC(=O)CCC(N)C(=O)O)C(=O)NCC(=O)O)c(OC)cc3C(=O)N2C1` (stereo not shown) [Compound 3b], the “Percentage of all products” value runs as follows: (4 mM GSH, 1 h) 0.3%; (4 mM GSH, 4 h) 0%; (4 mM GSH, 24 h) 0%.
